Laboratory results taken from patent US20060206946A1, “Method of disrupting heme transport in nematodes and of modelling and evaluating eukaryotic heme transport” (priority 2005, published 2006).

Tested on: C. elegans mutant IH718
Assay: Growth of heme resistant mutant in CeHR medium
Type: in vivo, Caenorhabditis elegans
Set-up: key: + = wild type equivalent In growth; ND: No growth
Procedure: To further increase the stringency of our genetic screen we split the contents from each 800 μM hemin selection flasks into two flasks containing either 800 μM or 1000 μM hemin. This allowed us to use another tier of positive selection to identify mutants with greater resistance to heme toxicity. Mutants from each flask were isolated and treated as a separate entity by giving an identification number based on the Genetic Nomenclature Guidelines used for C. elegans (http://biosci.umn.edu/CGC/Nomenclature/nomenguid.htm). To eliminate EMS-induced spurious mutations that could result in false positive, the mutants were outcrossed to wild-type N2 males. After five outcrosses, which replaces ˜97% of the mutant genome, mutants that bred true were selected for further analysis. Using this procedure, we isolated 13 individual mutants that were resistant to heme toxicity. […]
Worm Culture and Growth Assays. […] Worm growth was monitored each day and an aliquot was obtained for counting by microscopy usually at days 3, 6, and 9. The worms in each well were counted twice and each growth condition was analyzed in triplicate. P values for statistical significance were calculated utilizing a one-way ANOVA with Student-Newman-Keuls multiple comparison test using GraphPad Instat version 3.01. […]

Substance: hemin chloride
- Growth 1.6 μM hemin: +
